In patent US20230391760A1, “HETEROCYCLIC GLP-1 AGONISTS” (Gasherbrum Bio, Inc., priority 2020, published 2023):

The compounds below were run against GLP-1 Receptor (Homo sapiens, UniProt P43220) (assay: GLP-1R agonist cAMP stimulation assay (HEK293/GLP1R/CRE-LUC cells, cAMP dynamic 2 Kit)). Details: HEK293/CRE-Luc cell line stably expressing the GLP-1 Receptor, 30 min at 37° C.
GLP-1 Receptor, sequence (P43220 24-463, species assumed): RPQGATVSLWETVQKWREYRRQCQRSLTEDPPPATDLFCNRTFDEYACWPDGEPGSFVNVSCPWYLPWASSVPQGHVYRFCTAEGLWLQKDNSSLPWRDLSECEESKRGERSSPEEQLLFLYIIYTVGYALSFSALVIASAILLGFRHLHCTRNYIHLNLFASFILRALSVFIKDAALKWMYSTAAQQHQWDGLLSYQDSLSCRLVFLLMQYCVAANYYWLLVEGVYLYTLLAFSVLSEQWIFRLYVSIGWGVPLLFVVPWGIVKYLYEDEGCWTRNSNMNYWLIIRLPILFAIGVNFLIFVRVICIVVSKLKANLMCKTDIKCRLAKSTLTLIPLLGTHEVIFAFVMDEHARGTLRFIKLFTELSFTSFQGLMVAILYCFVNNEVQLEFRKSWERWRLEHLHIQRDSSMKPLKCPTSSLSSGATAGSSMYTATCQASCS
Type: cell-based
How it was run: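 cAMP measured by HTRF competition (d2-labelled cAMP with cryptate antibody, 1 h, room temperature, protected from light). Before that, GLP1R/CRE-Luc HEK293 cells (1000/well) were exposed for 30 min at 37 °C to half-log compound dilutions in DPBS containing IBMX 0.5 mM and BSA 0.1%.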
In the case of Fc1cc(Cl)ccc1COc1cc(N2CCN(Cc3nc4cc(-c5nnc(C(F)(F)F)[nH]5)ncc4n3C[C@@H]3CCO3)CC2)ccc1F [Compound 456a, 1-{3-[(4-chloro-2-fluorophenyl)methoxy]-4-fluorophenyl}-4-[(3-{[(2S)-oxetan-2-yl]methyl}-6-[5-(trifluoromethyl)-4H-1,2,4-triazol-3-yl]-3H-imidazo[4,5-c]pyridin-2-yl)methyl]piperazine], the EC50 is reported as 0.085 nM.
In the case of Fc1cc(Cl)ccc1COc1cccc(C2CCN(Cc3nc4cc(-n5cc(C6CCCOC6)nn5)ccc4n3C[C@@H]3CCO3)CC2)n1 (stereo partly drawn) [Compound 211a, 2-[(4-{6-[(4-chloro-2-fluorophenyl)methoxy]pyridin-2-yl}piperidin-1-yl)methyl]-5-[4-(oxan-3-yl)-1H-1,2,3-triazol-1-yl]-1-{[(2S)-oxetan-2-yl]methyl}-1H-1,3-benzodiazole], the EC50 is reported as 3.6 nM.
With Cc1nc(-c2noc(=O)[nH]2)cc2nc(CN3CCC(c4cccc5c4O[C@@](C)(c4ccc(Cl)cc4F)O5)CC3)n(C[C@@H]3CCO3)c12 [Compound 434a, 3-[2-({4-[(2S)-2-(4-chloro-2-fluorophenyl)-2-methyl-2H-1,3-benzodioxol-4-yl]piperidin-1-yl}methyl)-4-methyl-3-{[(2S)-oxetan-2-yl]methyl}-3H-imidazo[4,5-c]pyridin-6-yl]-4,5-dihydro-1,2,4-oxadiazol-5-one] the EC50 was 0.23 nM.
CC(=O)Nc1ccc2c(c1)nc(CN1CCC(c3cccc4c3OC[C@@H](c3ccc(Cl)cc3F)O4)CC1)n2C[C@@H]1CCO1 [Compound 114a, N-(2-((4-((R)-2-(4-chloro-2-fluorophenyl)-2,3-dihydrobenzo[b][1,4]dioxin-5-yl)piperidin-1-yl)methyl)-1-(((S)-oxetan-2-yl)methyl)-1H-benzo[d]imidazol-5-yl)acetamide] was tested, and the EC50 was 58.9 nM.
Work on C[C@]1(c2ccc(Cl)cc2F)Oc2cccc(C3CCN(Cc4nc5cc(C(=O)O)nnc5n4C[C@@H]4CCO4)CC3)c2O1 [Compound 431a, 6-({4-[(2S)-2-(4-chloro-2-fluorophenyl)-2-methyl-2H-1,3-benzodioxol-4-yl]piperidin-1-yl}methyl)-7-{[(2S)-oxetan-2-yl]methyl}-7H-imidazo[4,5-c]pyridazine-3-carboxylic acid] yielded an EC50 of 0.11 nM.
C[C@]1(c2ccc(Cl)cc2F)Oc2cccc(C3CCN(Cc4nc5cc(-c6noc(=O)[nH]6)cnc5n4CC4(C#N)CC4)CC3)c2O1 [Compound 334a, 1-{[2-({4-[(2S)-2-(4-chloro-2-fluorophenyl)-2-methyl-2H-1,3-benzodioxol-4-yl]piperidin-1-yl}methyl)-6-(5-oxo-4,5-dihydro-1,2,4-oxadiazol-3-yl)-3H-imidazo[4,5-b]pyridin-3-yl]methyl}cyclopropane-1-carbonitrile] showed an EC50 of 0.25 nM.
Fc1cc(Cl)ccc1COc1cccc(C2=CCN(Cc3nc4cc(-c5nnc(C(F)(F)F)[nH]5)ncc4n3C[C@@H]3CCO3)CC2)c1 [Compound 307a, 4-{3-[(4-chloro-2-fluorophenyl)methoxy]phenyl}-1-[(3-{[(2S)-oxetan-2-yl]methyl}-6-[5-(trifluoromethyl)-4H-1,2,4-triazol-3-yl]-3H-imidazo[4,5-c]pyridin-2-yl)methyl]-1,2,3,6-tetrahydropyridine] was tested, and the EC50 was 0.26 nM.
In the case of O=C(Nc1ccc2c(c1)nc(CN1CCC(c3cccc(OCc4ccc(Cl)cc4F)n3)CC1)n2C[C@@H]1CCO1)c1cccnc1 [Compound 168a, N-{2-[(4-{6-[(4-chloro-2-fluorophenyl)methoxy]pyridin-2-yl}piperidin-1-yl)methyl]-1-{[(2S)-oxetan-2-yl]methyl}-1H-1,3-benzodiazol-5-yl}pyridine-3-carboxamide], the EC50 is reported as 0.058 nM.
With Fc1cc(Cl)ccc1COc1nc(C2CCN(Cc3nc4cc(-c5nnc(C(F)(F)F)[nH]5)nnc4n3C[C@@H]3CCO3)CC2)ncc1F [Compound 510a, 4-[(4-chloro-2-fluorophenyl)methoxy]-5-fluoro-2-{1-[(7-{[(2S)-oxetan-2-yl]methyl}-3-[5-(trifluoromethyl)-4H-1,2,4-triazol-3-yl]-7H-imidazo[4,5-c]pyridazin-6-yl)methyl]piperidin-4-yl}pyrimidine] the EC50 was 0.16 nM.
CC1(c2ccc(Cl)cc2F)Oc2cccc(C3CCN(Cc4nc5cc(-c6n[nH]c(=O)s6)ccc5n4C[C@@H]4CCO4)CC3)c2O1 (stereo partly drawn) [Compound 221a, 5-[2-({4-[2-(4-chloro-2-fluorophenyl)-2-methyl-2H-1,3-benzodioxol-4-yl]piperidin-1-yl}methyl)-1-{[(2S)-oxetan-2-yl]methyl}-1H-1,3-benzodiazol-5-yl]-2,3-dihydro-1,3,4-thiadiazol-2-one] showed an EC50 of 7.4 nM.
Work on COC1(C(=O)Nc2ccc3c(c2)nc(CN2CCC(c4cccc(OCc5ccc(Cl)cc5F)n4)CC2)n3C[C@@H]2CCO2)CCCOC1 (stereo partly drawn) [Compound 196a, N-{2-[(4-{6-[(4-chloro-2-fluorophenyl)methoxy]pyridin-2-yl}piperidin-1-yl)methyl]-1-{[(2S)-oxetan-2-yl]methyl}-1H-1,3-benzodiazol-5-yl}-3-methoxyoxane-3-carboxamide] yielded an EC50 of 1.1 nM.
In the case of CC1(c2ccc(Cl)cc2F)Oc2cccc(C3CCN(Cc4nc5cc(-c6nnc(C(F)F)[nH]6)c(F)cc5n4C[C@@H]4CCO4)CC3)c2O1 (stereo partly drawn) [Compound 249a, 2-({4-[2-(4-chloro-2-fluorophenyl)-2-methyl-2H-1,3-benzodioxol-4-yl]piperidin-1-yl}methyl)-5-[5-(difluoromethyl)-4H-1,2,4-triazol-3-yl]-6-fluoro-1-{[(2S)-oxetan-2-yl]methyl}-1H-1,3-benzodiazole], the EC50 is reported as 0.27 nM.
Compound O=c1[nH]c(-c2cc3nc(CN4CCC(c5ccnc(OCc6ccc(Cl)cc6F)n5)CC4)n(C[C@@H]4CCO4)c3cn2)no1 [Compound 460a, 3-{2-[(4-{2-[(4-chloro-2-fluorophenyl)methoxy]pyrimidin-4-yl}piperidin-1-yl)methyl]-3-{[(2S)-oxetan-2-yl]methyl}-3H-imidazo[4,5-c]pyridin-6-yl}-4,5-dihydro-1,2,4-oxadiazol-5-one] has an EC50 of 0.15 nM.
Work on O=C(Nc1ccc2c(c1)nc(CN1CCC(c3cccc(OCc4ccc(Cl)cc4F)n3)CC1)n2C[C@@H]1CCO1)N1CCC(F)C1 (stereo partly drawn) [Compound 206a, N-{2-[(4-{6-[(4-chloro-2-fluorophenyl)methoxy]pyridin-2-yl}piperidin-1-yl)methyl]-1-{[(2S)-oxetan-2-yl]methyl}-1H-1,3-benzodiazol-5-yl}-3-fluoropyrrolidine-1-carboxamide] yielded an EC50 of 0.78 nM.
Cc1nnc(-c2cc3nc(CN4CCC(c5cccc6c5O[C@@](C)(c5ccc(Cl)cc5F)O6)CC4)n(C[C@@H]4CCO4)c3cn2)[nH]1 [Compound 289a, 4-[(2S)-2-(4-chloro-2-fluorophenyl)-2-methyl-2H-1,3-benzodioxol-4-yl]-1-{[6-(5-methyl-4H-1,2,4-triazol-3-yl)-3-{[(2S)-oxetan-2-yl]methyl}-3H-imidazo[4,5-c]pyridin-2-yl]methyl}piperidine] showed an EC50 of 0.0051 nM.
Compound CO[C@@H](C)Cn1c(CN2CCC(c3cccc4c3O[C@@](C)(c3ccc(C#N)cc3F)O4)CC2)nc2cc(-c3nnc(C(F)(F)F)[nH]3)ncc21 [Compound 454a, 3-fluoro-4-[(2S)-4-[1-({3-[(2S)-2-methoxypropyl]-6-[5-(trifluoromethyl)-4H-1,2,4-triazol-3-yl]-3H-imidazo[4,5-c]pyridin-2-yl}methyl)piperidin-4-yl]-2-methyl-2H-1,3-benzodioxol-2-yl]benzonitrile] has an EC50 of 0.17 nM.
O=C(Nc1ccc2c(c1)nc(CN1CCC(c3cccc(OCc4ccc(Cl)cc4F)n3)CC1)n2C[C@@H]1CCO1)C1CCS(=O)(=O)CC1 [Compound 156a, N-{2-[(4-{6-[(4-chloro-2-fluorophenyl)methoxy]pyridin-2-yl}piperidin-1-yl)methyl]-1-{[(2S)-oxetan-2-yl]methyl}-1H-1,3-benzodiazol-5-yl}-1,1-dioxo-1λ^6-thiane-4-carboxamide] gave an EC50 of 3 nM.
For C[C@]1(c2ccc(Cl)cn2)Oc2cccc(C3CCN(Cc4nc5cc(-c6nnc(C#N)[nH]6)ncc5n4C[C@@H]4CCO4)CC3)c2O1 [Compound 481a, 5-[2-({4-[(2S)-2-(5-chloropyridin-2-yl)-2-methyl-2H-1,3-benzodioxol-4-yl]piperidin-1-yl}methyl)-3-{[(2S)-oxetan-2-yl]methyl}-3H-imidazo[4,5-c]pyridin-6-yl]-4H-1,2,4-triazole-3-carbonitrile], the EC50 was 0.0048 nM.
Fc1cc(Cl)ccc1COc1nc(C2CCN(Cc3nc4cc(-c5nnc(C(F)(F)F)[nH]5)cnc4n3C[C@@H]3CCO3)CC2)ncc1F [Compound 504a, 4-[(4-chloro-2-fluorophenyl)methoxy]-5-fluoro-2-{1-[(3-{[(2S)-oxetan-2-yl]methyl}-6-[5-(trifluoromethyl)-4H-1,2,4-triazol-3-yl]-3H-imidazo[4,5-b]pyridin-2-yl)methyl]piperidin-4-yl}pyrimidine] gave an EC50 of 0.092 nM.
N#Cc1ccc(COc2cccc(C3=CCN(Cc4nc5cc(-c6noc(=O)[nH]6)cnc5n4C[C@@H]4CCO4)CC3)n2)c(F)c1 [Compound 322a, 3-fluoro-4-[({1′-[(3-{[(2S)-oxetan-2-yl]methyl}-6-(5-oxo-4,5-dihydro-1,2,4-oxadiazol-3-yl)-3H-imidazo[4,5-b]pyridin-2-yl)methyl]-1′,2′,3′,6′-tetrahydro-[2,4′-bipyridin]-6-yl}oxy)methyl]benzonitrile] gave an EC50 of 0.078 nM.
O=C(Nc1ccc2c(c1)nc(CN1CCC(c3cccc(OCc4ccc(Cl)cc4F)n3)CC1)n2C[C@@H]1CCO1)C1COC1 [Compound 104a, (S)—N-(2-((4-(6-((4-chloro-2-fluorobenzyl)oxy)pyridin-2-yl)piperidin-1-yl)methyl)-1-(oxetan-2-ylmethyl)-1H-benzo[d]imidazol-5-yl)oxetane-3-carboxamide] was tested, and the EC50 was 0.207 nM.
Fc1cc(Cl)ccc1COc1nccc(C2CCN(Cc3nc4cc(-c5nnc(C(F)(F)F)[nH]5)nnc4n3C[C@@H]3CCO3)CC2)n1 [Compound 508a, 2-[(4-chloro-2-fluorophenyl)methoxy]-4-{1-[(7-{[(2S)-oxetan-2-yl]methyl}-3-[5-(trifluoromethyl)-4H-1,2,4-triazol-3-yl]-7H-imidazo[4,5-c]pyridazin-6-yl)methyl]piperidin-4-yl}pyrimidine] was tested, and the EC50 was 0.42 nM.
